Experimental data: BindingDB's records for patent US12030880 (Chia Tai Tianqing Pharmaceutical Group, 2024)

How the values were obtained:
[1] = target: T1, Bromodomain-containing protein 4 [44-168] (Human, UniProt O60885); assay: In Vitro BRD4 (BD1) Enzymatic Activity Assay
T1 construct: 44-168
Method: In the present application, IC50 values of the compounds in inhibiting BRD4 (BD1) enzyme binding reaction were determined by homogeneous time resolved fluorescence (HTRF). A compounds was serially diluted 5-fold with 100% DMSO starting from 0.2 mM (7 concentrations in total), and then 2 μL of the compound at each concentration was added to 48 μL of a reaction buffer (20 mM HEPES pH 7.5, 150 mM NaCl, 5 mM DTT, 0.005% Tween 20, and 100 μg/mL BSA) for dilution, and mixed well. 2.5 μL of the resulting mixture was added to a 384-well plate (OptiPlate-384, purchased from PerkinElmer), then 5 μL of GST-BRD4 (BD1, 44-168 aa) (final concentration: 1 nM) was added, and the resulting mixture was centrifuged, and fully mixed. 2.5 μL of a short peptide Biotin-AHA-SGRGK(Ac)GGK(Ac)GLGK(Ac)GGAK(Ac) RHRKV (final concentration: 100 nM) was then added to initiate the reaction (total reaction volume: 10 μL). […] After being incubated in the incubator for another 1 hour, the fluorescence values (excited at 320 nm, emitted light at 665 nm and 620 nm being detected, and the ratio of the two being the enzyme binding signal) were read on Envision (purchased from PerkinElmer).

[2] = target: T2, Bromodomain-containing protein 4 [349-460] (Homo sapiens, UniProt O60885); assay: In Vitro BRD4 (BD2) Enzymatic Activity Assay
T2 construct: 349-460
Method: In the present application, IC50 values of the compounds in inhibiting BRD4 (BD2) enzyme binding reaction were determined by homogeneous time resolved fluorescence (HTRF). A compound was serially diluted 5-fold with 100% DMSO starting from 1 mM (7 concentrations in total), and then 2 μL of the compound at each concentration was added to 18 μL of a reaction buffer (20 mM HEPES pH 7.5, 150 mM NaCl, 5 mM DTT, 0.005% Tween 20, and 100 μg/mL BSA) for dilution. After being mixed well, 2 μL of the compound at each concentration was added to 48 μL of the above reaction buffer for dilution, and mixed well (final concentration of the compound in DMSO: 0.1%). 2.5 μL of the resulting mixture was added to a 384-well plate (OptiPlate-384, purchased from PerkinElmer), then 5 μL of GST-BRD4 (BD2, 349-460 aa) (final concentration: 2 nM) was added, and the resulting mixture was centrifuged, and fully mixed. 2.5 μL of a peptide Biotin-AHA-SGRGK(Ac)GGK(Ac)GLGK(Ac)GGAK(Ac) RHRKV (final concentration: 200 nM) was then added to initiate the reaction (total reaction volume: 10 μL). […] After being incubated in the incubator for another 1 hour, the fluorescence values (excited at 320 nm, emitted light at 665 nm and 620 nm being detected, and the ratio of the two being the enzyme binding signal) were read on Envision (purchased from PerkinElmer).

| IC50 [1] | IC50 [2] | Compound |
| --- | --- | --- |
| 1.4 nM | 0.98 nM | Cn1cc(-c2cc(N=S(C)(C)=O)ccc2Oc2ccc(C#N)cc2F)c2cc[nH]c2c1=O [US12030880, Example 2] |
| 14.7 nM | 0.51 nM | CCNC(=O)c1cc2c(-c3cc(N=S(C)(C)=O)ccc3Oc3ccc(S(C)(=O)=O)cc3)cn(C)c(=O)c2[nH]1 [US12030880, Example 1] |
